These results are taken from patent US20130035515A1, “LIGNOCELLULOSIC HYDROLYSATES AS FEEDSTOCKS FOR ISOBUTANOL FERMENTATION” (priority 2011, published 2013).

In test [1] the test system is PNY1504. Nature of the test: Fermentation of glucose to isobutanol by PNY1504 in defined medium with or without antimycin A. The test is classed as cell-based, Saccharomyces cerevisiae. The settings on record: glucose 35 g/L. Here is the method:
(§1) Strain PNY1504 was pre-cultured in the defined medium SC-GE as described above, except that the medium was buffered to pH 6. Production cultures used the same SC medium, except either glucose or xylose was added to a final concentration of 35 g/L, and penicillin G (Sigma P3032) was added at 25 μg/ml.
(§2) Xylulose can be taken up by yeast and metabolized via the pentose phosphate pathway. […] Souto-Maior A M, et al., J Biotechnol. 143:119-23 (2009). Thus, in order to increase flux towards fermentative products, cultures were treated with the respiratory inhibitor antimycin A (1 μM; Sigma A8674).

The subject of test [2] is PNY1504. Nature of the test: Fermentation of xylose to isobutanol by PNY1504 in defined medium with xylose isomerase, with or without antimycin A. Format: cell-based, Saccharomyces cerevisiae. Here is the method: as §1
Unless it is genetically engineered to do so, S. cerevisiae is unable to ferment xylose, but it is able to ferment xylulose. In order to test whether xylose is available for fermentation to isobutanol, it was converted to xylulose in situ by xylose isomerase (10 g/L; Sigma G4166) essentially as described in Lastick S. M., et al., Applied Microbiology and Biotechnology 30:574-579 (1989), Wang P. Y., et al., Biotechnology Letters 2:273-278 (1980) and Chandrakant P & Bisaria V S, Appl Microbiol Biotechnol 53:301-309 (2000).
as §2

Setting [3] is: antimycin A-treated culture (1 μM).

Bounds are passed on as bounds.

Consider antimycin A, for which, in the test with PNY1504 [1] (antimycin A 1 μM), the “Time in which glucose (hexose) was consumed” value was no more than 24 h. For the same substance, in the test on PNY1504 [1] (setting [3]), the Isobutanol titer was roughly 3.3 g/L and the Isobutanol yield entry was “approximately 0.08 g·g^−1”. Further, in the test on PNY1504 [2] (antimycin A 1 μM), the “Effect on biomass accumulation” value is “reduce biomass accumulation slightly” and the “Effect on xylose consumption profile” value is on record as “not significantly affected”. This substance gave an Isobutanol production in the test with PNY1504 [2] (antimycin A 1 μM, at 78 hours) of 0.5 g/L. Besides, in the test on PNY1504 [2] (in the presence of antimycin A), the Isobutanol yield worked out at 0.04 g/g.
